Laboratory results from patent publication US8883801B2, “Substituted pyrazolo[1,5-a]pyrimidines as mTOR inhibitors” (Merck Sharp & Dohme Corp., priority 2010, dated 2014).
Like-named read-outs stand apart in the source and are kept apart here.

Columns and labels:
[1] = target: human mTOR enzyme (Homo sapiens, UniProt P42345); assay: HTRF mTOR enzyme (kinase) assay; type: biochemical; conditions: 5 μM ATP, 0.2 μM GST-S6K, read-out: hMTOR IC50
Protocol: Methods: An HTRF mTOR enzyme assay was developed to assess the compounds' inhibitory activity. The mTOR assay buffer contained 10 mM Hepes (pH 7.4), 50 mM NaCl, […] BSA, 50 mM […], 10 mM MnCl2 and 0.5 mM DTT. […] 20 ng of human mTOR enzyme (<5% pure was preincubated with the compound for 10 minutes followed by the addition of 5 μM ATP and 0.2 μM GST-S6K (Zhang et al., Protein Expression and Purification 46, pp 414-420 (2006)). The reaction was incubated for one hour at 30° C. Anti phospho p70-S6K(Thr389) (˜1.7 ng/well, anti-phospho-p70S6K-cryptate (Pho-p70S6-Kin-K cat#64CUSKAY, from Cisbio)) and anti GST-XL665 (1:1 Ratio with the substrate GST-S6K, anti GST-XL665, cat#61GSTXLB) Cisbio) were added after the reaction was stopped. The plates were read (PHERAstar, BMG) at least 2 hours after adding the anti phospho p70-S6K and the anti GST-XL665.
IC50 DETERMINATIONS: Dose-response curves were plotted from the inhibition data generated, each in duplicate, from 8 point serial dilutions of inhibitory compounds. Concentration of compound was plotted against the HTRF em665/em590 ratio signal. To generate IC50 values, the dose-response curves were fitted to a standard sigmoidal curve and IC50 values were derived by nonlinear regression analysis.

[2] = tested on: mTORC2 activity: phosphorylated AKT Ser473 (pAKT S473) in PC3 cells; assay: mTOR target engagement assay, immunofluorescent cell-based, mTORC2 readout; conditions: Homo sapiens, PC-3, 1.5 h, 90 min treatment
Protocol: The target engagement of mTOR kinase inhibitors was evaluated using an immunofluorescent cell-based assay. In this assay, inhibition of mTORC1 activity was measured by the reduction in the level of phosphorylated 4E-BP1Thr37/46 (p4E-BP1 Thr37/46), and inhibition of mTORC2 activity was measured by the reduction of phosphorylated AKTSer473 (pAKT S473).
PC3 cells (prostate tumor cell-line that contains a mutation in the tumor suppressor PTEN, that promotes the phosphorylation and activation of AKT and 4E-BP1) were used in the immunofluorescence assay. PC3 cells were seeded on 384 well plates (black clear bottom, Matrix #4332) overnight. PC3 cells were then treated with 40 μl of the serially diluted test compounds (in 5% fetal bovine serum, F12 medium containing 0.25% DMSO) for ninety minutes at 37° C. The test compound solution was removed, and the plates were washed gently two times with 25 μl phosphate buffered saline (PBS). The cells were fixed by adding 25 μl of Prefer reagent (from Anatech LTD, Cat#414, a glyoxal fixative for fixing proteins within a cell) for sixty minutes followed by three washes with PBS. 5% Goat serum in PBS/0.3% Triton was used to block non-specific binding (60 minutes).
The primary antibodies targeting pAKT S473 and p4E-BP1 Thr37/46 were diluted into PBS/0.3% Triton and incubated with the cells overnight at 4° C. The antibodies targeting pAKTS473 (Cat#4085, Cell signaling) and p4E-BP1 Thr37/46 (Cat#2855, Cell signaling) were used at a 1:100 dilution. Plates were washed three times with PBS/0.1% Tween 20 before adding the secondary antibody at a 1:200 dilution. (goat anti-rabbit containing a fluorescent label, Alexa Fluor 488, Cat#A11008, Invitrogen) in PBS/0.3% Triton for 60 minutes.
Finally, the plates were washed three times with PBS/0.1% Tween 20 and the fluorescent intensity was read using an Analyst HT from Molecular Devices. The fluorescent intensity values from the serially diluted compound treatment group were analyzed using the Xlfit 4 program ([…]) (Formula 205: Y=Bottom+(Top-Bottom)/(1+(IC50/X)^Hillslope) to generate the IC50 value. Where Top is the maximum signal without Compound (+DMSO only) and Bottom represents maximum inhibition. Y is the fluorescence at some compound concentration. The control used to determine the fluorescent intensities for 100% pAKT S473 or 100% phosphorylated p4E-BP1 Thr37/46 were measured from untreated wells that contained only DMSO, instead of test compound.

Chain of human mTOR enzyme (P42345 1360-2549 limits assumed): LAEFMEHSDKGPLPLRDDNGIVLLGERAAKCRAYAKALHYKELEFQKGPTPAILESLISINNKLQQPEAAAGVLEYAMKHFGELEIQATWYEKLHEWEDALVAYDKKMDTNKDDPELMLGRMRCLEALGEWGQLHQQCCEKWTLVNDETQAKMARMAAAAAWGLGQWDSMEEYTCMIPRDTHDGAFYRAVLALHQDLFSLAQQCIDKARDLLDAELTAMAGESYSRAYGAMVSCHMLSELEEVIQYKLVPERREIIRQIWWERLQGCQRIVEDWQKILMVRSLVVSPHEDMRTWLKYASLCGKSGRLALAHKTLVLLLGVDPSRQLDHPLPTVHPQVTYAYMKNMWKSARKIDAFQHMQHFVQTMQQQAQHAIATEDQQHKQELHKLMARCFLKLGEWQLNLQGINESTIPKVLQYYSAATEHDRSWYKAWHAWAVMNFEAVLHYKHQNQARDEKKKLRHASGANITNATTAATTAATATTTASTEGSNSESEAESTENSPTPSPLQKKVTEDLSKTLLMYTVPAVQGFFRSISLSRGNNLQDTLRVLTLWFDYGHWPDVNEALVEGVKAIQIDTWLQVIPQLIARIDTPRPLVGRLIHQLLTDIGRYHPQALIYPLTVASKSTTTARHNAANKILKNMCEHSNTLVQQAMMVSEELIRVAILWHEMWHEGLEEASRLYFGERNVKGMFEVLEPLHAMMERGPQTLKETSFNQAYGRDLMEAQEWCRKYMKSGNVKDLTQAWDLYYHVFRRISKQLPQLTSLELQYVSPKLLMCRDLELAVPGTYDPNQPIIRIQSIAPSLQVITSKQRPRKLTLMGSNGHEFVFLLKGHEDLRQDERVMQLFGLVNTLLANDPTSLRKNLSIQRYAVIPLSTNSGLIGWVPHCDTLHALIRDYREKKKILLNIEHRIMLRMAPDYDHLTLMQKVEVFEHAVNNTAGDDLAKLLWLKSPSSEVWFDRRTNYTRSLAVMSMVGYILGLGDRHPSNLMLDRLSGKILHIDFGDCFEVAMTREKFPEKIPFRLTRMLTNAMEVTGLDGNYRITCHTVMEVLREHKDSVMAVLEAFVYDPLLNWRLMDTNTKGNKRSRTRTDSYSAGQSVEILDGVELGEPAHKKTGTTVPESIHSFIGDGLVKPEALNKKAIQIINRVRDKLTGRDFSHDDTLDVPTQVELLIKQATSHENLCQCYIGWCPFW

Row | Structure (SMILES) | IC50 ([1]; rated class) | IC50 ([2]; rated class) | IC50 ([1]; numeric value) | IC50 ([2]; numeric value)
1 | COCCO[C@]1(C(=O)O)CC[C@@H](c2nc3c(-c4ccc(-c5ccccc5)nc4)cnn3c(N)c2C(C)=O)CC1 [Compound 57, (1R,4R)-4-(6-acetyl-7-amino-3-(6-phenylpyridin-3-yl)pyrazolo[1,5-a]pyrimidin-5-yl)-1-(2-methoxyethoxy) cyclohexanecarboxylic acid] | 1 to 100 nM | 100 to 1000 nM |  | 
2 | CS[C@]1(C(=O)O)CC[C@@H](c2nc3c(-c4cnn(-c5ccccc5)c4)cnn3c(N)c2Br)CC1 [Compound 10, (1R,4R)-4-(7-amino-6-bromo-3-(1-phenyl-1H-pyrazol-4-yl)pyrazolo[1,5-a]pyrimidin-5-yl)-1-(methylthio)-cyclohexane-carboxylic acid] | 1 to 100 nM | 2000 to 5000 nM |  | 
3 | Nc1c(Br)c([C@H]2CC[C@]3(CC2)NC(=O)NC3=O)nc2c(-c3ccc(-c4ccccc4)nc3)cnn12 [Compound 72, 8-(7-amino-6-bromo-3-(6-phenylpyridin-3-yl)pyrazolo[1,5-a]pyrimidin-5-yl)-1,3-diazaspiro[4.5]decane-2,4-dione] |  |  | 11.7 nM | 870 nM
4 | COCC1(C(=O)O)CCC(c2nc3c(-c4cnn(-c5ccccc5)c4)cnn3c(N)c2Br)CC1 (stereo not shown) [Compound 6, 4-(7-amino-6-bromo-3-(1-phenyl-1H-pyrazol-4-yl)pyrazolo[1,5-a]pyrimidin-5-yl)-1-(methoxymethyl)-cyclohexane-carboxylic acid] | 1 to 100 nM | 1000 to 2000 nM |  | 
5 | CC(=O)c1c(N)n2ncc(-c3cnn(-c4cnn(C)c4)c3)c2nc1[C@H]1CC[C@@](O)(CO)CC1 [Compound 148, 1-(7-amino-5-((1R,4R)-4-hydroxy-4-(hydroxymethyl)cyclohexyl)-3-(1′-methyl-1′H-1,4′-bipyrazol-4-yl)pyrazolo[1,5-a]pyrimidin-6-yl)ethanone] | 1 to 100 nM | 2000 to 5000 nM |  | 
6 | COCCOC1(CO)CCC(c2nc3c(-c4ccc(-c5ccccc5)nc4)cnn3c(N)c2C(C)=O)CC1 (stereo not shown) [Compound 86, 1-(7-amino-5-(4-(hydroxymethyl)-4-(2-methoxyethoxy)-cyclohexyl)-3-(6-phenylpyridin-3-yl)pyrazolo[1,5-a]pyrimidin-6-yl)ethanone] | 1 to 100 nM | 100 to 1000 nM |  | 
7 | Nc1c(Br)c([C@H]2CC[C@](O)(CC(=O)O)CC2)nc2c(-c3ccc(-c4ccccc4)nc3)cnn12 [Compound 77, 2-((1S,4S)-4-(7-amino-6-bromo-3-(6-phenylpyridin-3-yl)pyrazolo[1,5-a]pyrimidin-5-yl)-1-hydroxycyclohexyl)-acetic acid] | 1 to 100 nM | 1000 to 2000 nM |  | 
8 | N#CC1(O)CCC(c2nc3c(-c4ccc(-c5ccccc5)nc4)cnn3c(N)c2Br)CC1 (stereo not shown) [Compound 74, 4-(7-amino-6-bromo-3-(6-phenylpyridin-3-yl)pyrazolo[1,5-a]pyrimidin-5-yl)-1-hydroxycyclohexanecarbonitrile] | 1 to 100 nM | 2000 to 5000 nM |  | 
9 | COCCO[C@]1(C(=O)O)CC[C@@H](c2nc3c(-c4ccc(-c5cscn5)nc4)cnn3c(N)c2C(C)=O)CC1 [Compound 62, (1R,4R)-4-(6-acetyl-7-amino-3-(6-(thiazol-4-yl)pyridin-3-yl)pyrazolo[1,5-a]pyrimidin-5-yl)-1-(2-methoxyethoxy) cyclohexanecarboxylic acid] | 1 to 100 nM | 100 to 1000 nM |  | 
10 | COC[C@]1(C(=O)O)CC[C@@H](c2nc3c(-c4cnn(-c5ccccc5)c4)cnn3c(N)c2C(C)=O)CC1 [Compound 21, (1S,4S)-4-(6-acetyl-7-amino-3-(1-phenyl-1H-pyrazol-4-yl)pyrazolo[1,5-a]pyrimidin-5-yl)-1-(methoxymethyl)-cyclohexane-carboxylic acid] | 1 to 100 nM | 100 to 1000 nM |  | 
11 | CC(=O)c1c(C2CCC(O)(CO)CC2)nc2c(-c3ccc(-c4cccnc4)nc3)cnn2c1N (stereo not shown) [Compound 143, 1-(3-(2,3′-bipyridin-5-yl)-7-amino-5-(4-hydroxy-4-(hydroxymethyl)-cyclohexyl)-pyrazolo-[1,5-a]pyrimidin-6-yl)ethanone] | 1 to 100 nM | 1000 to 2000 nM |  | 
